Assay results taken from the NIST ThermoML archive (doi:10.1016/j.jct.2014.07.001).

Test: xn = mol fraction of the nth substance listed
Conditions: Drop volume

CCCC[n+]1ccccc1.F[B-](F)(F)F [1-butylpyridinium tetrafluoroborate] + CCO
surface tension liquid-gas [mN/m]
Conditions | 303.15 K | 313.15 K | 323.15 K
x1 = 0.05 | 22.16 | 21.51 | 20.72
x1 = 0.1021 | 22.72 | 22.17 | 21.41
x1 = 0.1959 | 23.54 | 23.25 | 22.74
x1 = 0.2902 | 24.72 | 24.48 | 24.26
x1 = 0.3922 | 26.57 | 26.27 | 26.25
x1 = 0.4914 | 28.89 | 28.68 | 28.54
x1 = 0.5953 | 31.85 | 31.63 | 31.45
x1 = 0.6898 | 35.04 | 34.75 | 34.53
x1 = 0.7903 | 38.62 | 38.26 | 38.01
x1 = 0.8879 | 42.28 | 41.85 | 41.5
x1 = 0.94 | 44.15 | 43.62 | 43.24
x1 = 1 | 46.3 | 45.69 | 45.11

CCCC[n+]1ccccc1.F[B-](F)(F)F [1-butylpyridinium tetrafluoroborate] + CO
surface tension liquid-gas [mN/m]
Conditions | 293.15 K | 303.15 K | 313.15 K | 323.15 K
x1 = 0.025 | 23.33 | 22.59 | 21.77 | 20.96
x1 = 0.0527 | 24.1 | 23.41 | 22.64 | 21.9
x1 = 0.0987 | 25.37 | 24.73 | 24.04 | 23.38
x1 = 0.1944 | 27.89 | 27.37 | 26.74 | 26.23
x1 = 0.2933 | 30.44 | 29.92 | 29.38 | 28.96
x1 = 0.3978 | 33.04 | 32.55 | 32.07 | 31.7
x1 = 0.4934 | 35.37 | 34.9 | 34.46 | 34.11
x1 = 0.5891 | 37.67 | 37.21 | 36.77 | 36.46
x1 = 0.6784 | 39.74 | 39.26 | 38.82 | 38.5
x1 = 0.7864 | 42.16 | 41.64 | 41.17 | 40.81
x1 = 0.8724 | 44.06 | 43.5 | 42.97 | 42.54
x1 = 0.93 | 45.33 | 44.76 | 44.17 | 43.69
x1 = 1 | 46.9 | 46.3 | 45.69 | 45.11
